{
  "source": "patent US11752111B2",
  "about": "“Use of cannabidivarin in the treatment of autism spectrum disorder, associated disorders and schizophrenia” (GW Research Limited, priority 2016, dated 2023)",
  "key": {"[1]": {"tested_on": "Ube3am-/p+ (AS) mice", "assay": "Clasping test in Angelman syndrome model", "type": "in vivo, mouse", "conditions": "CBDV 20 mg/kg i.p. chronic treatment (30 days); AS mice at 10 weeks of age vs AS vehicle", "description": "(§1) Heterozygous mice with maternal deficiency of Ube3A (Ube3am−/p+) and wild type (Ube3am+/p+) were purchased from The Jackson Laboratory (Jackson code: B6.129S7-Ube3a tm1Alb/J) and maintained in a C57BL/6 background.\nDrugs were dissolved in 1:1:18 ethanol:cremophor:0.9% saline, for intraperitoneal (i.p.) administration. […] CBDV was administered at 20 mg/kg.\nClasping: The clasping test assesses ataxia in mice. Mice were suspended by the base of the tail and their behaviours were recorded for 30 seconds. The time for which the mice clasped their hind limbs was recorded. The time was then scored as follows: 4, 15-30 s, 3, 10-15 s, 2, 5-10 s, 1, 0-5 s and 0,0 s"}, "[2]": {"tested_on": "Ube3am-/p+ (AS) mice", "assay": "Novel object recognition in Angelman syndrome model", "type": "in vivo, mouse", "conditions": "CBDV 20 mg/kg i.p.; AS mice at 7-8 weeks vs AS vehicle", "description": "as §1\nDrugs were dissolved in 1:1:18 ethanol:cremophor:0.9% saline, for intraperitoneal (i.p.) administration. Drug treatment was performed daily for 35 days. CBDV was administered at 20 mg/kg.\nNovel Object Recognition: The novel object recognition assesses recognition memory in mice. The experiment started with the habituation period, during which mice were allowed to freely explore for 1 hour the apparatus which consists of a rectangular open box (40×30×30 cm width×length×height) made of grey polyvinyl chloride (PVC) illuminated by a dim light. The day after each mouse was allowed to explore two identical objects positioned in the back left and right corners for 5 min (acquisition). A video camera recorded the time spent on exploration of each object. […] The behaviour of mice was analyzed by an observer blind to the treatment. Data are expressed as percentage of recognition index (RI %), which was calculated as the percentage of the time spent exploring the novel object/time spent exploring the novel object+time spent exploring the familiar object×100."}, "[3]": {"tested_on": "Ube3am-/p+ (AS) mice", "assay": "Audiogenic seizure susceptibility in Angelman syndrome model", "type": "in vivo, mouse", "description": "as §1\nFor the audiogenic seizure tests CBDV was administered at 20, 200 and 400 mg/kg.\nSeizure susceptibility: Audiogenic seizures were induced by vigorously scraping scissors across the metal grating of the cage lid which produces a 100 DB high frequency loud noise. This was done for 20 seconds. This test consists of 3 phases. In phase 1 all mice were tested for epilepsy. In phase 2 all mice were injected daily with either vehicle or a drug for 7 or 10 days. In phase 3 mice were tested for epilepsy (one hour after last injection)."}, "[4]": {"tested_on": "PCP-treated rats", "assay": "Social interaction test, sub-chronic PCP model of schizophrenia", "type": "in vivo, rat", "description": "Female hooded-Lister rats were used for this experiment. Rats were housed in groups of 5 under standard laboratory conditions under a 12 hr light: dark cycle, lights on at 0700 hr. Testing was carried out in the light phase.\nRats were randomly assigned to two treatment groups and treated with vehicle, n=20 (distilled water, i.p.) or Phencyclidine hydrochloride (PCP), n=100 (2 mg/kg, i.p. twice daily for 7-days). PCP was dissolved in distilled water. This was followed by a 7-day wash out period before the rats were tested following acute treatment with CBDV, risperidone or vehicle.\nRisperidone (0.1 mg/kg) was dissolved in a minimum volume of acetic acid, made up to volume with distilled water and pH adjusted to 6 with 0.1M NaOH and administered via the i.p. route in a volume of 1 ml/kg, 60 min prior to testing.\nCBDV at 2, 10 or 20 mg/kg was dissolved in 2:1:17 (Ethanol:Cremofor:Saline 0.9%) and administered via the i.p. route in a volume of 5 ml/kg, 60 min prior to testing.\nThe social interaction test is performed in an open-field comprising a square box made of Plexiglas (52×52×31 cm) placed 27 cm above the floor on a moveable trolley. The floor of the box is white with black gridlines forming 9 identical squares on it. All other walls are black. A video camera connected to a video recorder and monitor is positioned above the box. The object used for the test consists of a heavy structure made of metal that cannot be displaced by the animals.\nThe rats were habituated to the test environment and arena prior to the test day. Habituation consists of placing all rats from one cage together in the empty test arena for one hour for three days including the day before the test day.\nPairs of rats, weight matched (15-20 g) and unfamiliar to each other, receiving either no treatment (n=70 “conspecific” rats) or different treatments (PCP and Vehicle; n=10 “tested” rats or PCP+Drug; n=50 “tested” rats) were placed in the test arena together for 10 min and behaviour assessed as described below.\nAn inanimate object such as an unopened drinks can is also placed in the centre of the arena to measure any differences in interaction of the test animal with an unfamiliar animal as opposed to an unfamiliar object. After each 10 minute trial, the object and arena are cleaned with 10% alcohol in an attempt to remove traces of any olfactory cues. All testing is carried out under standard room illumination levels (70 cd/m2).\nBehaviour in both trials was recorded on video for subsequent blind scoring. A behavioural scoring software program (Hindsight, Scientific programming services) is used to score the following parameters: • Investigative sniffing behaviour: sniffing the conspecific's snout or parts of the body including the anogenital region; • Following: rat moves after the conspecific i.e. a vehicle treated rat of the same species, around the arena; • Avoidances: actively turning away when approached by the conspecific animal; • Investigation of object: exploration of object placed in centre of the arena; and • Locomotor activity is recorded by counting the total number of sectors (i.e. lines) crossed by the test rat. Results"}},
  "data": [
    {"compound": "C=C(C)[C@@H]1CCC(C)=C[C@H]1c1c(O)cc(CCC)cc1O", "note": "[CBDV, Cannabidivarin]", "values": [
      {"measurement": "clasping duration (FIG. 11)", "setting": "[1]", "result": "significantly reduced clasping duration"},
      {"measurement": "discrimination index, novel object recognition (FIG. 13)", "setting": "[2]", "result": "significantly increased the discrimination index"},
      {"measurement": "seizure susceptibility, number of mice with seizures vs baseline (FIG. 15)", "setting": "[3]; 20 mg/kg or 200 mg/kg, 7 or 10 days treatment", "result": "no effect"},
      {"measurement": "number of mice with seizures (FIG. 15)", "setting": "[3]; 400 mg/kg", "result": "statistically significant decrease"},
      {"measurement": "time spent avoiding the other rat (FIG. 18C)", "setting": "[4]; CBDV 20 mg/kg", "result": "reduce the amount of time"},
      {"measurement": "time spent following the other rat (FIG. 18B)", "setting": "[4]; CBDV 20 mg/kg", "result": "increased the amount of time"},
      {"measurement": "time spent sniffing the other rat (FIG. 18A)", "setting": "[4]; CBDV 10 and 20 mg/kg", "result": "significantly increased"},
      {"measurement": "PCP effects on social interaction (sniffing, following, avoiding) (FIG. 18)", "setting": "[4]; CBDV acute i.p.", "result": "reverse these effects in a statistically significant manner"}
    ]}
  ]
}
